{"source": "patent US20220288156A1", "about": "“TREATMENT” (QUEEN MARY UNIVERSITY OF LONDON, priority 2019, published 2022)", "test_system": "Myh7", "test": "Myh7 transcript expression by RT-qPCR, whole heart preparations", "assay_type": "in vivo, mouse", "settings": "FIG. 10: whole heart, AAC surgery, ldCil 3 weeks after surgery, normalised to Gapdh", "source_text": "Male C57BL6 mice (Charles River) underwent AAC surgery at 4-5 weeks of age (between 20 and 22 g). Mice were anaesthetised with isoflurane, placed in a supine position on the procedure table, and an incision made along the ventral underbelly, extending from the xiphoid process of the sternum, down to the groin to reveal the abdominal muscle. The abdominal muscle was then cut the same distance along the linea alba to allow easy reattachment of the two halves. The two sides of the abdominal muscles were clipped back to reveal the abdominal gastrointestinal organs, and these were carefully manoeuvred to expose the underlying abdominal aorta. The aorta was cleaned of visceral fats, and carefully separated from parallel vasculature, whilst avoiding any spinal nerves. […] Hearts were halved longitudinally and either snap frozen in liquid nitrogen (for immunohistochemistry) or stored in an RNA later stabilisation solution (for RT-quantitative PCR) (ThermoFisher Scientific, Hertfordshire, UK). […]\nComplementary DNA (cDNA) synthesis was carried out using the Applied Biosystems High Capacity cDNA Reverse Transcription (RT) Kit on a thermal cycler as per the manufacturer's instructions. cDNA was made up to a total quantity of either 600 (most mouse tissue and/or cells), or 1000 ng (human heart tissue). […]", "data": [{"smiles": "CC(C)[C@H]1C(=O)N[C@@H](CCCN=C(N)N)C(=O)NCC(=O)N[C@@H](CC(=O)O)C(=O)N[C@H](Cc2ccccc2)C(=O)N1C", "note": "[Cilengitide, c(f*VRGD)]", "values": [{"measurement": "Myh7 levels", "result": "restored Myh7 levels back to untreated levels"}]}]}
